# Laboratory results published in article PMC7933434, “Entropy-driven binding of gut bacterial β-glucuronidase inhibitors ameliorates irinotecan-induced toxicity” (Communications Biology, 2021).
# Where “and” joins values, the source holds several entries; their conditions need not be identical. Identical values can stand only once.
# Key:
# [1] = molecular target: BdGUS (Bifidobacterium dentium GUS) (Bifidobacterium dentium, UniProt D2Q7B1); assay: biochemical; parameters: GUS activity (hydrolysis rate of MUG) / 1/v: unit not given here
# BdGUS (Bifidobacterium dentium GUS), sequence (D2Q7B1 1-668): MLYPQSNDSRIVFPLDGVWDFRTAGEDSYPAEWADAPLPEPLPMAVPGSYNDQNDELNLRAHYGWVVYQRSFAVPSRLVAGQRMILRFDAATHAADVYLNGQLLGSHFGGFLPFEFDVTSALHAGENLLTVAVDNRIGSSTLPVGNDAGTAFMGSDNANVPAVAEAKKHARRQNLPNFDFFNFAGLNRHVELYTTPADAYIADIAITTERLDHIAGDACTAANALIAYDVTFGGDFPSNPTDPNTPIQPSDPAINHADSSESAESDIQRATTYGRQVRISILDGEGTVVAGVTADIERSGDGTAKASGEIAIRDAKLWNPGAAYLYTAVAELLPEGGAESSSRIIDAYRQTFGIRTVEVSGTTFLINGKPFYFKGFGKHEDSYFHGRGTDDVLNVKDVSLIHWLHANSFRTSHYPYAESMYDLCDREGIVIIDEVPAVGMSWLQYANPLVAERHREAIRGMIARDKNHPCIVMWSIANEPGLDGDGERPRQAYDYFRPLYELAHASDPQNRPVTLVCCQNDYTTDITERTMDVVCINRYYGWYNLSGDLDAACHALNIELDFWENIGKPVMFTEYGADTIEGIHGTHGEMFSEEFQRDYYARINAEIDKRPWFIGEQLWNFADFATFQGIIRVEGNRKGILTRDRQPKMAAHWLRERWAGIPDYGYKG
# [2] = molecular target: BdGUS (Bifidobacterium dentium, UniProt D2Q7B1); assay: biochemical; type: binding; details: BdGUS; Tris buffer (250 mM NaCl, 20 mM Tris, pH 8.0); 298 K
# BdGUS, sequence (D2Q7B1 entry or part of it): as the sequence (D2Q7B1 1-668) above
# [3] = molecular target: T1, HsGUS (human GUS) (Homo sapiens, UniProt P08236); assay: GUS inhibition assay, hydrolysis of 4-methylumbelliferyl-β-glucuronide, HsGUS; type: biochemical; parameters: GUS activity (hydrolysis rate of MUG): unit not given here; details: for Ki: HsGUS; for GUS activity (hydrolysis rate of MUG): [Inhibitor 1] =6.25 nM
# T1 construct: HsGUS was prepared as described[37]; made in house
# T1 sequence (P08236 23-651): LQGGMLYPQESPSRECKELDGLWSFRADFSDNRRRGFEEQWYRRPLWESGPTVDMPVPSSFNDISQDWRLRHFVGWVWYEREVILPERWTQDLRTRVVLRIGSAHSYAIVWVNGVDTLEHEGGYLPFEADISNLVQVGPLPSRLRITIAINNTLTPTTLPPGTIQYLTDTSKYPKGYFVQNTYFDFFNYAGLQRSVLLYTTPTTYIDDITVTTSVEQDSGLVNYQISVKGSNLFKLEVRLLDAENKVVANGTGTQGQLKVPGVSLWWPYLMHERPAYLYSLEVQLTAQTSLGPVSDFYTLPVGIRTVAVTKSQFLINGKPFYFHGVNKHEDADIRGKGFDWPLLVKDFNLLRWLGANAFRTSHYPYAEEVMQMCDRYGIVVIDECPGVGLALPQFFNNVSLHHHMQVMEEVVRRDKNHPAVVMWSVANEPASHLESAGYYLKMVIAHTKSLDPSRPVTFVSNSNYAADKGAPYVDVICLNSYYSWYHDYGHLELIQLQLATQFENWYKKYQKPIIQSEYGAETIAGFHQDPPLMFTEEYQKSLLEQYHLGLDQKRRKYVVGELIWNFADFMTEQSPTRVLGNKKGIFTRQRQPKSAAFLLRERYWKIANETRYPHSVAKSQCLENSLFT
# [4] = [Inhibitor 1] = 6.25 nM, [MUG] 0.375 mM
# [5] = [Inhibitor 1] = 6.25 nM, [MUG] 0.75 mM
# [6] = [Inhibitor 1] = 6.25 nM, [MUG] 1.5 mM
# [7] = [Inhibitor 1] = 6.25 nM, [MUG] 3 mM
# [8] = [Inhibitor 1] = 12.5 nM, [MUG] 0.375 mM
# [9] = [Inhibitor 1] = 12.5 nM, [MUG] 0.75 mM
# [10] = [Inhibitor 1] = 12.5 nM, [MUG] 1.5 mM
# [11] = [Inhibitor 1] = 12.5 nM, [MUG] 3 mM
# [12] = [Inhibitor 1] = 25 nM, [MUG] 0.375 mM
# [13] = [Inhibitor 1] = 25 nM, [MUG] 0.75 mM
# [14] = [Inhibitor 1] = 25 nM, [MUG] 1.5 mM
# [15] = [Inhibitor 1] = 25 nM, [MUG] 3 mM
# [16] = [Inhibitor1] = 50 nM, [MUG] 0.375 mM
# [17] = [Inhibitor1] = 50 nM, [MUG] 0.75 mM
# [18] = [Inhibitor1] = 50 nM, [MUG] 1.5 mM
# [19] = [Inhibitor1] = 50 nM, [MUG] 3 mM
compound,measurement,setting,value
"O=C(O)[C@H]1CNC[C@@H](O)[C@@H]1O [Inhibitor 1, Uronic isofagomine]",Ki,[1]; BdGUS,7.4 nM
same,1/v,[1]; [4],0.8126 and 0.846 and 0.7526
same,GUS activity (hydrolysis rate of MUG),[1]; [4],0.2748 and 0.264 and 0.2967
same,1/v,[1]; [5],0.5186 and 0.5024 and 0.468
same,GUS activity (hydrolysis rate of MUG),[1]; [5],0.4306 and 0.4444 and 0.4771
same,1/v,[1]; [6],0.3591 and 0.3484 and 0.3239
same,GUS activity (hydrolysis rate of MUG),[1]; [6],0.6217 and 0.6409 and 0.6893
same,1/v,[1]; [7],0.2793 and 0.2899 and 0.2702
same,GUS activity (hydrolysis rate of MUG),[1]; [7],0.7996 and 0.7703 and 0.8263
same,1/v,[1]; [8],1.155 and 1.089 and 1.043
same,GUS activity (hydrolysis rate of MUG),[1]; [8],0.1934 and 0.2051 and 0.2141
same,1/v,[1]; [9],0.6535 and 0.6591 and 0.6116
same,GUS activity (hydrolysis rate of MUG),[1]; [9],0.3417 and 0.3388 and 0.3651
same,1/v,[1]; [10],0.4306 and 0.4268 and 0.4023
same,GUS activity (hydrolysis rate of MUG),[1]; [10],0.5186 and 0.5232 and 0.555
same,1/v,[1]; [11],0.3354 and 0.3372 and 0.306
same,GUS activity (hydrolysis rate of MUG),[1]; [11],0.6657 and 0.6621 and 0.7298
same,1/v,[1]; [12],1.814 and 1.753 and 1.625
same,GUS activity (hydrolysis rate of MUG),[1]; [12],0.1231 and 0.1273 and 0.1374
same,1/v,[1]; [13],0.8901 and 1.007 and 0.9854
same,GUS activity (hydrolysis rate of MUG),[1]; [13],0.2509 and 0.2218 and 0.2266
same,1/v,[1]; [14],0.5908 and 0.5953 and 0.5748
same,GUS activity (hydrolysis rate of MUG),[1]; [14],0.3779 and 0.3751 and 0.3885
same,1/v,[1]; [15],0.423 and 0.431 and 0.4024
same,GUS activity (hydrolysis rate of MUG),[1]; [15],0.5279 and 0.5181 and 0.5549
same,1/v,[1]; [16],3.2999 and 3.135 and 3.11
same,GUS activity (hydrolysis rate of MUG),[1]; [16],0.06767 and 0.07122 and 0.07181
same,1/v,[1]; [17],1.905 and 1.744 and 1.761
same,GUS activity (hydrolysis rate of MUG),[1]; [17],0.1172 and 0.128 and 0.1268
same,1/v,[1]; [18],0.9882 and 1.034 and 0.9748
same,GUS activity (hydrolysis rate of MUG),[1]; [18],0.226 and 0.216 and 0.2291
same,1/v,[1]; [19],0.6379 and 0.6438 and 0.6305
same,GUS activity (hydrolysis rate of MUG),[1]; [19],0.35 and 0.3468 and 0.3542
same,Kd,[2],300 ± 60 nM
same,ΔG,[2],–8.91 ± 0.13 kcal/mol
same,ΔH,[2],–10.47 kcal/mol
same,—TΔS,[2],1.56 ± 0.37 kcal/mol
same,Ki,[3],180 nM
same,Ki,"[3]; 50 mM sodium acetate pH 4.5, 37 °C",180 ± 2 nM
same,GUS activity (hydrolysis rate of MUG),[3]; [MUG] 0.1 mM,1052.77 and 919.367
same,GUS activity (hydrolysis rate of MUG),[3]; [MUG] 0.2 mM,1682.62 and 1656.5
same,GUS activity (hydrolysis rate of MUG),[3]; [MUG] 0.4 mM,2736.45 and 2863.61
same,GUS activity (hydrolysis rate of MUG),[3]; [MUG] 0.6 mM,3626.7 and 3614.16
same,GUS activity (hydrolysis rate of MUG),[3]; [MUG] 0.8 mM,4294.49 and 4051.74
same,GUS activity (hydrolysis rate of MUG),[3]; [MUG] 1.2 mM,5041.75 and 5285.84
